# Paper PMC8906456, “Structural insights into the catalytic and inhibitory mechanisms of the flavin transferase FmnB in Listeria monocytogenes” (MedComm, 2022)
# Target: T1, FmnB (Listeria monocytogenes, UniProt A0A0H3GJF7)
# T1 construct: gene LMRG_02181; structure covers about residues 36-357
# T1 sequence (A0A0H3GJF7 20-360): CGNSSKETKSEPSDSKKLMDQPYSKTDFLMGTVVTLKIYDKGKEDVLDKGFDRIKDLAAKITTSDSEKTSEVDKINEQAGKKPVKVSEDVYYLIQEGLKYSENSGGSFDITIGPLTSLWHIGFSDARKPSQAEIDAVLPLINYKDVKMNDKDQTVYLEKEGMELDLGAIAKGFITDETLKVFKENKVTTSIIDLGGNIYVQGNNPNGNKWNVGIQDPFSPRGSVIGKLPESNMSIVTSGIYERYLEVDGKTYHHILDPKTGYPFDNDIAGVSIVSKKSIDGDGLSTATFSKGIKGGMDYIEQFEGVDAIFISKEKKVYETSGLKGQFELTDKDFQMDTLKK
# Experiment: inhibition of PplA FMNylation, in-gel flavin fluorescence
# Assay type: biochemical
# Conditions: 10 uM to 4 mM inhibitor; 100 uM FAD, 50 uM PplA, 15 mM Mg2+, 16 °C; competitive
row,Compound,"inhibition of PplA FMNylation, in-gel flavin fluorescence"
1,Nc1ncnc2c1ncn2[C@@H]1O[C@H](COP(=O)(O)OP(=O)(O)O)[C@@H](O)[C@H]1O [ADP],ADP demonstrated a much stronger inhibitory ability against FmnB activity (Figure 4A)
2,Nc1ncnc2c1ncn2[C@@H]1O[C@H](COP(=O)(O)O)[C@@H](O)[C@H]1O [AMP],"the enzymatic assays indicated that AMP, ADP and ATP could inhibit FmnB activity"
3,Nc1ncnc2c1ncn2[C@@H]1O[C@H](COP(=O)(O)OP(=O)(O)OP(=O)(O)O)[C@@H](O)[C@H]1O [ATP],"the enzymatic assays indicated that AMP, ADP and ATP could inhibit FmnB activity"
